# What was measured:
# [1] = target: TEAD4 (Homo sapiens (Human), UniProt Q15561); assay: TR-FRET lipid pocket probe competition assay (Lipid HTRF), TEAD4; format: binding; settings: 4 hours pre-incubation; read-out: Lipid HTRF TEAD4 IC50;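 also: His-tagged TEAD4 with biotinylated lipid-pocket probe, read by Europium anti-His and XL665 streptavidin, where probe displacement lowers the TR-FRET signal, IC50 from a four-parameter fit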
# [2] = target: TEAD1 (Homo sapiens (Human), UniProt P28347); assay: TR-FRET lipid pocket probe competition assay (Lipid HTRF), TEAD1; format: binding; settings: 4 hours pre-incubation; read-out: Lipid HTRF TEAD1 IC50;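 also: His-tagged TEAD1 with biotinylated probe, detected via Europium anti-His and XL665 streptavidin, probe displacement lowers TR-FRET signal, IC50 from four-parameter nonlinear fit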
# [3] = target: TEAD3 (Homo sapiens (Human), UniProt Q99594); assay: TR-FRET lipid pocket probe competition assay (Lipid HTRF), TEAD3; format: binding; settings: 4 hours pre-incubation; read-out: Lipid HTRF TEAD3 IC50
# [4] = target: TEAD2 (Homo sapiens (Human), UniProt Q15562);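 also: TR-FRET competition assay with His-tagged TEAD protein and a biotinylated lipid pocket probe, compound pre-incubated 30 min or 4 h at room temperature, displacement lowers signal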
# Sequence of TEAD2 (Q15562 whole entry, species assumed): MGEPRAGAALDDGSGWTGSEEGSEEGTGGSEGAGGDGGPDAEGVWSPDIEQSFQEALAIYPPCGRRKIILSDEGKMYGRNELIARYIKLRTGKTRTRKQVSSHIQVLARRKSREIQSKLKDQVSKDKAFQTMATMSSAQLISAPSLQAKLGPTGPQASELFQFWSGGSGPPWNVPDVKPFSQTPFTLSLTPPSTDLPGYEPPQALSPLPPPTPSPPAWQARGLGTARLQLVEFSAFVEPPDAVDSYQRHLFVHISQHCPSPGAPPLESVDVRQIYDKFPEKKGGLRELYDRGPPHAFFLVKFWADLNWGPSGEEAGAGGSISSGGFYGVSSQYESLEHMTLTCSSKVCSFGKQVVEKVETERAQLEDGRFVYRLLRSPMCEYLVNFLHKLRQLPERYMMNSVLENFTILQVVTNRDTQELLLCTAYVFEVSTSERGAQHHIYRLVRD
# Protocol: His-tagged TEAD proteins are pre-incubated with TEAD project compounds for 30 minutes or 4 hours at room temperature. Biotinylated lipid pocket probes are then added to the TEAD/Compound mixture and incubated for 60 minutes at room temperature. The lipid pocket probe competes with the test compound for the TEAD lipid pocket until equilibrium is reached. After 60 minutes, Europium labelled anti-His (Perkin Elmer #AD0110) and XL665 labelled streptavidin (CIS Bio 610SAXAC) are added to the TEAD/test compound/lipid pocket mixture and incubated for 30 minutes or 4 hours. TR-FRET values are then measured using an EnVision multi-label plate reader (Perkin Elmer Cat #2104-0010A.) If the lipid pocket probe binds to TEAD as expected, a TR-FRET signal results from the proximity of anti-His Eu and XL665. If a TEAD lipid pocket binder such as binds and displaces the lipid pocket probe, the disruption of the TEAD:probe interaction results in a decrease in TR-FRET signal. The potency of compounds as TEAD lipid pocket binders is determined by IC50 value generated using a non-linear 4 parameter curve fit.
# Sequence of TEAD4 (Q15561 whole entry, species assumed): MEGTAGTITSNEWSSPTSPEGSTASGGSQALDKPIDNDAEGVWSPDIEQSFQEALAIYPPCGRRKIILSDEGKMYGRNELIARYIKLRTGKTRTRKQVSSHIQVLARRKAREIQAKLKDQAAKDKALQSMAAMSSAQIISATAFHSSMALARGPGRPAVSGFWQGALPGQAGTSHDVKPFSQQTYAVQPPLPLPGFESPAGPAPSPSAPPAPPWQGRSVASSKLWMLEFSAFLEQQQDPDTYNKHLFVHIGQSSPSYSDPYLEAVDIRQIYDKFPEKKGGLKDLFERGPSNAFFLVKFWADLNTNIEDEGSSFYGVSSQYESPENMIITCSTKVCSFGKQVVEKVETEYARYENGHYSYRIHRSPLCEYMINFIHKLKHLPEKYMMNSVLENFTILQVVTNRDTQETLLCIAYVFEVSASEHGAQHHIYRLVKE
# Sequence of TEAD3 (Q99594 whole entry, species assumed): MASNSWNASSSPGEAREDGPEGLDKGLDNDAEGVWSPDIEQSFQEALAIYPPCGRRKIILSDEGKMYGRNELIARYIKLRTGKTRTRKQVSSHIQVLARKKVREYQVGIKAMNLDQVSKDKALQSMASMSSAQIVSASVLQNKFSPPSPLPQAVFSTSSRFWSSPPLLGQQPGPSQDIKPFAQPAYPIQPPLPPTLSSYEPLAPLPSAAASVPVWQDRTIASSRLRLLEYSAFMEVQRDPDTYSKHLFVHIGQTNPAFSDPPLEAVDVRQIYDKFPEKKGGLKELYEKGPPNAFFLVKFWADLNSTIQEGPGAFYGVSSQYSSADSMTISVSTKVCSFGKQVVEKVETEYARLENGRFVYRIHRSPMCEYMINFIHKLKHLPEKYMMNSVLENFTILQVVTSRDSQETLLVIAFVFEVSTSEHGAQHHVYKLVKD
# Sequence of TEAD1 (P28347 whole entry, species assumed): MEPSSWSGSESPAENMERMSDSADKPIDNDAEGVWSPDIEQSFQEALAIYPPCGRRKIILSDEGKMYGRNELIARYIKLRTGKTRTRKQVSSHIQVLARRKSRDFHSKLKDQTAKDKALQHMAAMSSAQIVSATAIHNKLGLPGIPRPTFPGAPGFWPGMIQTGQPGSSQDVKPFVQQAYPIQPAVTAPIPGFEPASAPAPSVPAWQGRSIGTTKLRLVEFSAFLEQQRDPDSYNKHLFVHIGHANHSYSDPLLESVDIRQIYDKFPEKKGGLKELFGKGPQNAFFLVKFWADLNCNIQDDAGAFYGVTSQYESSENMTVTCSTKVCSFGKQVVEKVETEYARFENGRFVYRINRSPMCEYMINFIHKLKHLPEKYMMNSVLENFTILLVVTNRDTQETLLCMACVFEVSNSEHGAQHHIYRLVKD
SMILES,IC50 [1] [nM],IC50 [2] [nM],IC50 [3] [nM],IC50 [4] [nM]
"C=CC(=O)NCc1nn(-c2ccc(S(F)(F)(F)(F)F)cc2)c2cccc(C#N)c12 [Compound 14, N-((4-cyano-1-(4-(pentafluoro-λ^6-sulfanyl)phenyl)-1H-indazol-3-yl)methyl)acrylamide]",33,84,140,50000
"C=CC(=O)N(C)Cc1nn(-c2ccc(OC(F)(F)F)cc2)c2ccccc12 [Compound 18, N-methyl-N-((1-(4-(trifluoromethoxy)phenyl)-1H-indazol-3-yl)methyl)acrylamide]",3.4,6.8,100,66
"C=C(F)C(=O)N1CC(c2nn(-c3ccc(OC(F)(F)F)cc3)c3nccc([C@@H](O)CO)c23)C1 [Compound 21, 1-[3-[4-[(1R)-1,2-dihydroxyethyl]-1-[4-(trifluoromethoxy)phenyl]pyrazolo[3,4-b]pyridin-3-yl]azetidin-1-yl]-2-fluoro-prop-2-en-1-one]",13,21.5,38.5,7.2
"C=CC(=O)NCc1nn(-c2ccc(OC(F)(F)F)cc2)c2nccc(NC(=O)CO)c12 [Compound 24, N-((4-(2-Hydroxyacetamido)-1-(4-(trifluoromethoxy)phenyl)-1H-pyrazolo[3,4-b]pyridin-3-yl)methyl)acrylamide]",45.5,18.5,405,130
"C=CC(=O)NCc1nn(-c2ccc(OC(F)(F)F)cc2)c2nccc(C(=O)NCCO)c12 [Compound 25, 3-(Acrylamidomethyl)-N-(2-hydroxyethyl)-1-(4-(trifluoromethoxy)phenyl)-1H-pyrazolo[3,4-b]pyridine-4-carboxamide]",95,960,3700,6000
"O=C(/C=C\Cl)NCc1nn(-c2ccc(OC(F)(F)F)cc2)c2nccc([C@@H](O)CO)c12 [Compound 26, (R,Z)-3-chloro-N-((4-(1,2-dihydroxyethyl)-1-(4-(trifluoromethoxy)phenyl)-1H-pyrazolo[3,4-b]pyridin-3-yl)methyl)acrylamide]",14,140,50000,160
"C=C(F)C(=O)N1CC(c2nn(-c3ccc(OC(F)(F)F)cc3)c3nccc(-c4cnn(CCO)c4)c23)C1 [Compound 28, 2-Fluoro-1-(3-(4-(1-(2-hydroxyethyl)-1H-pyrazol-4-yl)-1-(4-(trifluoromethoxy)phenyl)-1H-pyrazolo[3,4-b]pyridin-3-yl)azetidin-1-yl)prop-2-en-1-one]",33,23,5700,220
"C=CC(=O)NCc1nn(-c2ccc(OC(F)(F)F)cc2)c2nccc(C(=O)NC)c12 [Compound 30, 3-(Acrylamidomethyl)-N-methyl-1-(4-(trifluoromethoxy)phenyl)-1H-pyrazolo[3,4-b]pyridine-4-carboxamide]",180,490,2600,1500
"C=C(F)C(=O)N1CC(c2nn(-c3ccc(OC(F)(F)F)cc3)c3nccc([C@H](O)CO)c23)C1 [Compound 31, (S)-1-(3-(4-(1,2-dihydroxyethyl)-1-(4-(trifluoromethoxy)phenyl)-1H-pyrazolo[3,4-b]pyridin-3-yl)azetidin-1-yl)-2-fluoroprop-2-en-1-one]",25.5,35,62,32
"C=CC(=O)NCc1nn(-c2ccc(OC(F)(F)F)cc2)c2nccc(CO)c12 [Compound 32, N-((4-(Hydroxymethyl)-1-(4-(trifluoromethoxy)phenyl)-1H-pyrazolo[3,4-b]pyridin-3-yl)methyl)acrylamide]",25,13,220,57
"C=CC(=O)NCc1nn(-c2ccc(OC(F)(F)F)cc2)c2nccc(O[C@H]3C[C@@H](O)C3)c12 [Compound 34, N-((4-(cis-3-Hydroxycyclobutoxy)-1-(4-(trifluoromethoxy)phenyl)-1H-pyrazolo[3,4-b]pyridin-3-yl)methyl)acrylamide]",39,23,50000,340
"C=CC(=O)NCc1nn(-c2ccc(OC(F)(F)F)cc2)c2nccc(-c3cnn(CCO)c3)c12 [Compound 35, N-((4-(1-(2-Hydroxyethyl)-1H-pyrazol-4-yl)-1-(4-(trifluoromethoxy)phenyl)-1H-pyrazolo[3,4-b]pyridin-3-yl)methyl)acrylamide]",14,17,640,170
"C=CC(=O)NCc1nn(-c2ccc(OC(F)(F)F)cc2)c2nccc(NCCO)c12 [Compound 36, N-((4-((2-Hydroxyethyl)amino)-1-(4-(trifluoromethoxy)phenyl)-1H-pyrazolo[3,4-b]pyridin-3-yl)methyl)acrylamide]",5.8,9.2,500,120
"O=C(/C=C/Cl)NCc1nn(-c2ccc(OC(F)(F)F)cc2)c2nccc(CO)c12 [Compound 37, (E)-3-Chloro-N-((4-(hydroxymethyl)-1-(4-(trifluoromethoxy)phenyl)-1H-pyrazolo[3,4-b]pyridin-3-yl)methyl)acrylamide]",3.2,6.9,33,14
"C=CC(=O)NCc1nn(-c2ccc(OC(F)(F)F)cc2)c2nccc([C@H]3C[C@@H](O)C3)c12 [Compound 38, N-((4-(cis-3-Hydroxycyclobutyl)-1-(4-(trifluoromethoxy)phenyl)-1H-pyrazolo[3,4-b]pyridin-3-yl)methyl)acrylamide]",39,180,50000,100
"C=C(F)C(=O)N1CC(c2nn(-c3ccc(OC(F)(F)F)cc3)c3nccc(N4CC(F)(CO)C4)c23)C1 [Compound 39, 2-Fluoro-1-(3-(4-(3-fluoro-3-(hydroxymethyl)azetidin-1-yl)-1-(4-(trifluoromethoxy)phenyl)-1H-pyrazolo[3,4-b]pyridin-3-yl)azetidin-1-yl)prop-2-en-1-one]",5.4,42,840,19
"COC/C=C/C(=O)N1CC(c2nn(-c3ccc(OC(F)(F)F)cc3)c3nccc(CO)c23)C1 [Compound 40, (E)-1-(3-(4-(Hydroxymethyl)-1-(4-(trifluoromethoxy)phenyl)-1H-pyrazolo[3,4-b]pyridin-3-yl)azetidin-1-yl)-4-methoxybut-2-en-1-one]",13,16,66,48
"C=C(F)C(=O)N1CC(c2nn(-c3ccc(OC(F)(F)F)cc3)c3nccc(NC(=O)CO)c23)C1 [Compound 42, N-(3-(1-(2-Fluoroacryloyl)azetidin-3-yl)-1-(4-(trifluoromethoxy)phenyl)-1H-pyrazolo[3,4-b]pyridin-4-yl)-2-hydroxyacetamide]",25,20,27,200
"C=CC(=O)NCc1nn(-c2ccc(OC(F)(F)F)cc2)c2nccc(N3CC(CO)C3)c12 [Compound 43, N-((4-(3-(hydroxymethyl)azetidin-1-yl)-1-(4-(trifluoromethoxy)phenyl)-1H-pyrazolo[3,4-b]pyridin-3-yl)methyl)acrylamide]",4.6,13,780,54
"C=C(F)C(=O)N1CC(c2nn(-c3ccc(OC(F)(F)F)cc3)c3nccc(-c4cnn(CCN(C)C)c4)c23)C1 [Compound 45, 1-(3-(4-(1-(2-(Dimethylamino)ethyl)-1H-pyrazol-4-yl)-1-(4-(trifluoromethoxy)phenyl)-1H-pyrazolo[3,4-b]pyridin-3-yl)azetidin-1-yl)-2-fluoroprop-2-en-1-one]",340,250,50000,1500
"C=CC(=O)NCc1nn(-c2ccc(OC(F)(F)F)cc2)c2nccc(N3CC[C@H](O)C3)c12 [Compound 46, (S)-N-((4-(3-hydroxypyrrolidin-1-yl)-1-(4-(trifluoromethoxy)phenyl)-1H-pyrazolo[3,4-b]pyridin-3-yl)methyl)acrylamide]",13,50,2100,150
"C=CC(=O)NCc1nn(-c2ccc(OC(F)(F)F)cc2)c2nccc(N3CC[C@@H](O)C3)c12 [Compound 47, (R)-N-((4-(3-hydroxypyrrolidin-1-yl)-1-(4-(trifluoromethoxy)phenyl)-1H-pyrazolo[3,4-b]pyridin-3-yl)methyl)acrylamide]",11,33,2000,100
"C#Cc1ccnc2c1c(C1CN(C(=O)C=C)C1)nn2-c1ccc(OC(F)(F)F)cc1 [Compound 48, 1-(3-(4-Ethynyl-1-(4-(trifluoromethoxy)phenyl)-1H-pyrazolo[3,4-b]pyridin-3-yl)azetidin-1-yl)prop-2-en-1-one]",0.88,3.5,4.8,2.3
"O=C(/C=C/CO)N1CC(c2nn(-c3ccc(OC(F)(F)F)cc3)c3nccc(-c4cn[nH]c4)c23)C1 [Compound 50, (E)-1-(3-(4-(1H-Pyrazol-4-yl)-1-(4-(trifluoromethoxy)phenyl)-1H-pyrazolo[3,4-b]pyridin-3-yl)azetidin-1-yl)-4-hydroxybut-2-en-1-one]",9.5,24,200,75
"C=CC(=O)NCc1nn(-c2ccc(OC(F)(F)F)cc2)c2nccc(-c3c[nH]nn3)c12 [Compound 51, N-((4-(1H-1,2,3-Triazol-4-yl)-1-(4-(trifluoromethoxy)phenyl)-1H-pyrazolo[3,4-b]pyridin-3-yl)methyl)acrylamide]",15,32,510,120

# Source: patent publication US12110276B2 (Genentech, Inc., priority 2021, dated 2024)
